Results reported in PMC10107436, “Persicamidines—Unprecedented Sesquarterpenoids with Potent Antiviral Bioactivity against Coronaviruses” (Angewandte Chemie (International Ed. in English), 2023).

What was measured:
hCoV-229E = assay: microbe, parasite or virus in culture; type: cell-based; details: Human coronavirus 229E
SARS-CoV-2 = assay: microbe, parasite or virus in culture; type: cell-based; details: for IC50: Severe acute respiratory syndrome coronavirus 2, SARS-CoV-2 in A549_ACE2_TMPRSS2 cells, fluorescence, mean of three biological replicates; for selectivity index (CC50/IC50): CC50 in A549_ACE2_TMPRSS2 cells over IC50
in vitro = details: human

Structure (SMILES) | IC50 (hCoV-229E) [nM] | IC50 (SARS-CoV-2) [nM] | viral inhibition (SARS-CoV-2; SARS-CoV-2, antiviral compound control at 1 µM) | CC50 (in vitro) [nM] | selectivity index (CC50/IC50) (SARS-CoV-2)
CC[C@@H](C)NC1=N[C@@]2(C)C(=CO1)[C@@]1(C)C(=O)C[C@H]3[C@@H](CC[C@@H]4[C@]3(C)CC[C@H]3[C@@]4(C)CC[C@H]4[C@@](C)(CO)C[C@H](O[C@H]5C[C@@H](OC)[C@H](O)[C@@H](C)O5)[C@@H](O)[C@@]43C)[C@@]13O[C@H]3[C@@H]2O [Persicamidine A, persicamidine A] | 3.8 | 130 | – | – | –
CCC(CC)COC(=O)[C@H](C)N[P@](=O)(OC[C@H]1O[C@@](C#N)(c2ccc3c(N)ncnn23)[C@H](O)[C@@H]1O)Oc1ccccc1 [Remdesivir, reference compound] | 3.5 | 30 | full viral inhibition | > 1000 | –
CO[C@@H]1C[C@H](O[C@H]2C[C@](C)(CO)[C@@H]3CC[C@@]4(C)[C@@H]5CC[C@@H]6[C@H](CC(=O)[C@]7(C)C8=COC(N[C@H](C)C(C)(C)C)=N[C@]8(C)[C@@H](O)[C@@H]8O[C@@]687)[C@@]5(C)CC[C@@H]4[C@@]3(C)[C@@H]2O)O[C@H](C)[C@H]1O [Persicamidine D, persicamidine D] | 5.2 | 84 | – | – | > 80
CCNC1=N[C@@]2(C)C(=CO1)[C@@]1(C)C(=O)C[C@H]3[C@@H](CC[C@@H]4[C@]3(C)CC[C@H]3[C@@]4(C)CC[C@H]4[C@@](C)(CO)C[C@H](O[C@H]5C[C@@H](OC)[C@H](O)[C@@H](C)O5)[C@@H](O)[C@@]43C)[C@@]13O[C@H]3[C@@H]2O [Persicamidine E, persicamidine E] | 5.3 | 250 | – | – | –
CO[C@@H]1C[C@H](O[C@H]2C[C@](C)(CO)[C@@H]3CC[C@@]4(C)[C@@H]5CC[C@@H]6[C@H](CC(=O)[C@]7(C)C8=COC(N[C@H](C)C(C)C)=N[C@]8(C)[C@@H](O)[C@@H]8O[C@@]687)[C@@]5(C)CC[C@@H]4[C@@]3(C)[C@@H]2O)O[C@H](C)[C@H]1O [Persicamidine C, persicamidine C] | 6.6 | 74 | – | – | > 50
CO[C@@H]1C[C@H](O[C@H]2C[C@](C)(CO)[C@@H]3CC[C@@]4(C)[C@@H]5CC[C@@H]6[C@H](CC(=O)[C@]7(C)C8=COC(NC(C)C)=N[C@]8(C)[C@@H](O)[C@@H]8O[C@@]687)[C@@]5(C)CC[C@@H]4[C@@]3(C)[C@@H]2O)O[C@H](C)[C@H]1O [Persicamidine B, persicamidine B] | 3.6 | 230 | – | – | –
